Test results taken from patent publication US20250034216A1, “STEREOSELECTIVE COVALENT LIGANDS FOR ONCOGENIC AND IMMUNOLOGICAL PROTEINS” (The Scripps Research Institute, priority 2021, published 2025).

Assays:
Test in all cases: IA-DTB cysteine engagement
Type in all cases: binding
Settings in all cases: 22Rv1 cells, 20 μM probe, 1 h, relative to DMSO
TOMM70_C214 = target: T1, TOMM70_C214 (Homo sapiens, UniProt O94826)
T1 construct: endogenous in cells; host or cells: 22Rv1
T1 sequence (O94826 1-608): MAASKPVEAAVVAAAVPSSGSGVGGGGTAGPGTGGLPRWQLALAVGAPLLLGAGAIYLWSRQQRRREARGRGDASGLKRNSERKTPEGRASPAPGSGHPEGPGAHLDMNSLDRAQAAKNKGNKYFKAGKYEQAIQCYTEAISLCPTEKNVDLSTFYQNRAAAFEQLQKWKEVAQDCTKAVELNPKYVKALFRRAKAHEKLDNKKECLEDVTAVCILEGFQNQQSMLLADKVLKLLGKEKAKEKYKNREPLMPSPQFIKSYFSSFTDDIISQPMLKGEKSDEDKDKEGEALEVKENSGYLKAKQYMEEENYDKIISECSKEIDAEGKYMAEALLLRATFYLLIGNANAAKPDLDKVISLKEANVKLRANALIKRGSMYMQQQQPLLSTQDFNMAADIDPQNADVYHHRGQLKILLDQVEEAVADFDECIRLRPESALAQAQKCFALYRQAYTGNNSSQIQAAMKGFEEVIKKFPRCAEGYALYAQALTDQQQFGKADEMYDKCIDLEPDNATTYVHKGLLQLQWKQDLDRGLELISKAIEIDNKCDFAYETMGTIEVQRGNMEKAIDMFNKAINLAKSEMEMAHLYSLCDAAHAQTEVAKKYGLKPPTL
Method in brief: (§1)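 Competitive chemoproteomics: residual cysteine reactivity toward IA-DTB in lysates from probe-treated cells was quantified by TMT reporter ions relative to DMSO-treated controls. Replicates sharing cell line, probe, concentration and duration were averaged.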

PRORP_C507 = target: T2, PRORP_C507 (Homo sapiens, UniProt O15091)
T2 construct: endogenous in cells; host or cells: 22Rv1
T2 sequence (O15091 46-583): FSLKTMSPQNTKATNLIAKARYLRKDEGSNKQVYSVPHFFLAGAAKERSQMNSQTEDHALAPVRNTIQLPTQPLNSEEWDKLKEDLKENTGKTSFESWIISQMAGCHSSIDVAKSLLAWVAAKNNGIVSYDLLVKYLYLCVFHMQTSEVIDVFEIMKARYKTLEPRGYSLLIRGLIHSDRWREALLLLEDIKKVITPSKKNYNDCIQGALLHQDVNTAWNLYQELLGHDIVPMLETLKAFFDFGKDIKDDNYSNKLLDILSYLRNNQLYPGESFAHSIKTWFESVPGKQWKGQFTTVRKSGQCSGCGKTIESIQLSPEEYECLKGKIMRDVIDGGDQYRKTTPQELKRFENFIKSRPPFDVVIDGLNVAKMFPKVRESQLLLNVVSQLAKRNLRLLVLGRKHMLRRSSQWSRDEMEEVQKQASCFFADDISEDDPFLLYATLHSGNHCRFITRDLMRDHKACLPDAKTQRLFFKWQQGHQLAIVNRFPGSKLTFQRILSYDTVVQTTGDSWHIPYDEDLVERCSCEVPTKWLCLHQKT
Method in brief: as §1

UBR5_C2094 = target: T3, UBR5_C2094 (Homo sapiens, UniProt O95071)
T3 construct: endogenous in cells; host or cells: 22Rv1
T3 sequence (O95071 whole entry): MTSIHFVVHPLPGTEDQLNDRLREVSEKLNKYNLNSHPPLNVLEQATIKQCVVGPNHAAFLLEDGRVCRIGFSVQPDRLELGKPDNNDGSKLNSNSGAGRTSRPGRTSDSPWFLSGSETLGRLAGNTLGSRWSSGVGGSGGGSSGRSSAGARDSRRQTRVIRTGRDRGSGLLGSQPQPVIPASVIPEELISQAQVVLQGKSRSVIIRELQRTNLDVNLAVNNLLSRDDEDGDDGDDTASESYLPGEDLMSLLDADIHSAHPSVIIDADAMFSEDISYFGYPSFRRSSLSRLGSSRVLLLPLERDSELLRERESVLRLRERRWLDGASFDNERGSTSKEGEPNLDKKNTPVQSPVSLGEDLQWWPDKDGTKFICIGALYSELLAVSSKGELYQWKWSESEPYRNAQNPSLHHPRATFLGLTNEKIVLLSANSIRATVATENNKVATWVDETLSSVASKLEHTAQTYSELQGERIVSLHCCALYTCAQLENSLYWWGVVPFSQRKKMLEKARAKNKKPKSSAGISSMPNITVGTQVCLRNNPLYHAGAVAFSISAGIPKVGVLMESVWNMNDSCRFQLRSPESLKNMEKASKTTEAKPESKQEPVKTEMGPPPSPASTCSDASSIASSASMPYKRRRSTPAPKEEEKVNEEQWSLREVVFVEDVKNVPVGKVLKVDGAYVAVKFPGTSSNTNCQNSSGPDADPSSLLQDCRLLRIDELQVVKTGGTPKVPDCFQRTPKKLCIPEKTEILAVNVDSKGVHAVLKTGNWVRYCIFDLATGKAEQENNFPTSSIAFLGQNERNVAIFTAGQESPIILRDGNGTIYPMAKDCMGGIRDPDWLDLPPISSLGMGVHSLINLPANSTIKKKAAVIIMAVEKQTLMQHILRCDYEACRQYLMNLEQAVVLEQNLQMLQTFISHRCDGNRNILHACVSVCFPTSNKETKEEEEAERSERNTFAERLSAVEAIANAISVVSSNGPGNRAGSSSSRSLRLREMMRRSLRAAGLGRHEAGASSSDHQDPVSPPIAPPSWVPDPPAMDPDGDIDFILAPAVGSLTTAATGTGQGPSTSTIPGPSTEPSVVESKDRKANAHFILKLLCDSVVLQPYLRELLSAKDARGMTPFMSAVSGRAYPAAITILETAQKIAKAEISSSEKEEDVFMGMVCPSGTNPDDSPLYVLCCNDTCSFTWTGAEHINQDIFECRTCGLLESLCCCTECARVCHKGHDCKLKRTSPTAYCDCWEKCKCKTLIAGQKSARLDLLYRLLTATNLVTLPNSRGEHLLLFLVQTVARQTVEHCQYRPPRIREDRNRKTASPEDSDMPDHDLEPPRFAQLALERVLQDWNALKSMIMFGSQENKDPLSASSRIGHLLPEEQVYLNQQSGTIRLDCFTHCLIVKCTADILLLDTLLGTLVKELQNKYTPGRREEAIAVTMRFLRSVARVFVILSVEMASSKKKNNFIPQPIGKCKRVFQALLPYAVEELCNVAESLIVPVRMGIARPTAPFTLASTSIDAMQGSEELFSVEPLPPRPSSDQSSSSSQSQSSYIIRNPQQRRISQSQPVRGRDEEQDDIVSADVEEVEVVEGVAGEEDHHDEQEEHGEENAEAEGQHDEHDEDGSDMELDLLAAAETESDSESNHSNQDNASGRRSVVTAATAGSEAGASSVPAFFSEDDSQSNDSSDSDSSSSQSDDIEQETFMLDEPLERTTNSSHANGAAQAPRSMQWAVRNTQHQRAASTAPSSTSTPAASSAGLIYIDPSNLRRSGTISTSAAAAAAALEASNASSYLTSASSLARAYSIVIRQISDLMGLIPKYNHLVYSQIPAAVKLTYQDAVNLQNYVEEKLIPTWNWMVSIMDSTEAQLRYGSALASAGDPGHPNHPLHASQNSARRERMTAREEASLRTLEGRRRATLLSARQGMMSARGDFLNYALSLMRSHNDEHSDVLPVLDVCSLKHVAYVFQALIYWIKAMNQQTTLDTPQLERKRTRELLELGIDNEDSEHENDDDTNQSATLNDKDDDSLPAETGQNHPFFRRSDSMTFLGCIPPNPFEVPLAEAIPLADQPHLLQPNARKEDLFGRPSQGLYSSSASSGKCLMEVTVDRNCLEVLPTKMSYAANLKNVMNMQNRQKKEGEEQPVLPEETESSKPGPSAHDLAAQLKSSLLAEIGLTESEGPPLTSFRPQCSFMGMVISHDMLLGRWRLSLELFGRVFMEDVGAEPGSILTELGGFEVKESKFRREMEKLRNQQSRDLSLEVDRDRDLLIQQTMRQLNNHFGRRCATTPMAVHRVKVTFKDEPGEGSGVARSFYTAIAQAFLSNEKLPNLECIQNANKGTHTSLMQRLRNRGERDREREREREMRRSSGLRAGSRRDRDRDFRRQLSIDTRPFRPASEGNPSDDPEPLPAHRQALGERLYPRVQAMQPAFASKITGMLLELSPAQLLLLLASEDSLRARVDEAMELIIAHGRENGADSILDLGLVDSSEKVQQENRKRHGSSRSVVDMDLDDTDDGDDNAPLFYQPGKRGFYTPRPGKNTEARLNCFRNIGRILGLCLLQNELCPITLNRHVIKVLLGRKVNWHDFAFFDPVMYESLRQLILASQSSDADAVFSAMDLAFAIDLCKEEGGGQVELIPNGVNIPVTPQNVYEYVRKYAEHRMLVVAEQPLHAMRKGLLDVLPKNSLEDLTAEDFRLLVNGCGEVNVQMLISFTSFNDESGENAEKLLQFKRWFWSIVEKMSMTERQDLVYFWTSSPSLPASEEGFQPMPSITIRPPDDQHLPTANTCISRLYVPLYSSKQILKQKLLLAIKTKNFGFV
Method in brief: as §1

Row | SMILES | % engagement TOMM70_C214 (TOMM70_C214) [%] | % engagement PRORP_C507 (PRORP_C507) [%] | % engagement UBR5_C2094 (UBR5_C2094) [%]
1 | C=CC(=O)N1C[C@H](c2ccc(Br)cc2)[C@H]1C(=O)Nc1cccc2cccnc12 [MY-3A, (2S,3S)-1-acryloyl-3-(4-bromophenyl)-N-(quinolin-8-yl)azetidine-2-carboxamide] | 30.5 | 1.25 | 22.5
2 | C=CC(=O)N1C[C@H](c2ccc(Br)cc2)[C@@H]1C(=O)Nc1cccc2cccnc12 [MY-1B, (2R,3S)-1-acryloyl-3-(4-bromophenyl)-N-(quinolin-8-yl)azetidine-2-carboxamide] | 29 | 74.25 | 40.5
3 | C=CC(=O)N1C[C@H](c2ccc(Br)cc2)[C@H]1C(=O)Nc1cccc2cccnc12 [MY-3B, (2S,3S)-1-acryloyl-3-(4-bromophenyl)-N-(quinolin-8-yl)azetidine-2-carboxamide] | 71.5 | 34.5 | 81
4 | C=CC(=O)N1C[C@@H](c2ccc(Br)cc2)[C@H]1C(=O)Nc1cccc2cccnc12 [MY-1A, (2S,3R)-1-acryloyl-3-(4-bromophenyl)-N-(quinolin-8-yl)azetidine-2-carboxamide] | 7.5 | 6.75 | 23
